Assay results from ChEMBL document CHEMBL1130544, “Catalysis of the Kemp elimination by antibodies elicited against a cationic hapten” (Bioorg Med Chem Lett, 1997).

Assays:
Format in all cases: ADME
[1] = Rate constant at 30 degree C in phosphate buffer pH 7.1, 0.5 % acetonitrile was expressed as Kcat/KM
[2] = Rate constant with triethylamine at 30 degree C in 0.1 M potassium chloride was expressed as Kamine
[3] = Rate constant ratio at 30 degree C in phosphate buffer pH 7.1, 0.5 % acetonitrile
[4] = Kinetic parameter for antibody-catalyzed Kemp elimination, at pH 7.1, 30C, using 1% acetonitrile and 6C2 as catalyst was expressed as Kcat/KM
[5] = Kinetic parameter for antibody-catalyzed Kemp elimination, at pH 7.1, 30C, using 1% acetonitrile and 4B2 as catalyst was expressed as Kcat/Kuncat
[6] = Kinetic parameter for antibody-catalyzed Kemp elimination, at pH 7.1, 30C, using 5% acetonitrile and 4B2 as catalyst was expressed as Kcat
[7] = Kinetic parameter for antibody-catalyzed Kemp elimination, at pH 7.1, 30C, using 5% acetonitrile and 4B2 as catalyst was expressed as Kcat/KM
[8] = Kinetic parameter for antibody-catalyzed Kemp elimination, at pH 7.1, 30C, using 5% acetonitrile and 4B2 as catalyst was expressed as KM
[9] = Kinetic parameter for antibody-catalyzed Kemp elimination, at pH 7.1, 30C, using 1% acetonitrile and 4B2 as catalyst was expressed as Kcat
[10] = Kinetic parameter for antibody-catalyzed Kemp elimination, at pH 7.1, 30C, using 1% acetonitrile and 4B2 as catalyst was expressed as KM
[11] = Kinetic parameter for antibody-catalyzed Kemp elimination, at pH 7.1, 30C, using 1% acetonitrile and 4B2 as catalyst was expressed as Kcat/KM
[12] = Kinetic parameter for antibody-catalyzed Kemp elimination, at pH 7.1, 30C, using 0.25% acetonitrile and 4B2 as catalyst was expressed as Kcat/KM
[13] = Kinetic parameter for antibody-catalyzed Kemp elimination, at pH 7.1, 30C, using 10% acetonitrile and 4B2 as catalyst was expressed as Kcat/KM
[14] = Kinetic parameter for antibody-catalyzed Kemp elimination, at pH 7.1, 30C, using 5% acetonitrile and 4B2 as catalyst was expressed as Kcat/Kuncat

k cat/Km [1] [M⁻¹ s⁻¹]	K amine [2] [M⁻¹ s⁻¹]	Ratio [3]	k cat/Km [4] [M⁻¹ s⁻¹]	k cat/Kuncat [5]	k cat [6] [s⁻¹]	k cat/Km [7] [M⁻¹ s⁻¹]	Km [8] [µM]	k cat [9] [s⁻¹]	Km [10] [µM]	k cat/Km [11] [M⁻¹ s⁻¹]	k cat/Km [12] [M⁻¹ s⁻¹]	k cat/Km [13] [M⁻¹ s⁻¹]	k cat/Kuncat [14]	Structure (SMILES)
0.6	0.0185	32												c1ccc2oncc2c1 [BENZO[D]ISOXAZOLE]
39	0.82	48	1.4	18000	0.022	10.1	2100	0.035	1200	29.1	53	5.9	6300	O=[N+]([O-])c1ccc2oncc2c1
6	0.16	38												O=[N+]([O-])c1ccc2cnoc2c1
